Results published in patent US9321790B2, “Pyrimidinone derivatives as antimalarial agents” (SANOFI, priority 2012, dated 2016).

Experiments:
[1] = tested on: Plasmodium falciparum (strain NF54); assay: Antimalarial activity test: growth of Plasmodium falciparum in infected human erythrocytes, 3H-hypoxanthine incorporation; assay type: cell-based; details: strain NF54 sensitive to chloroquine, 72 h total incubation
Outline: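 Chloroquine-sensitive NF54 parasites in human erythrocytes (1.25% hematocrit, 0.15% parasitemia) were grown in hypoxanthine-free RPMI 1640 with HEPES and Albumax II, with compound in twofold serial dilution, at 37 °C under 93% N2/4% CO2/3% O2. After 48 h, 3H-hypoxanthine (0.5 μCi) was added for 24 h. Scintillation counts versus drug-free control gave IC50.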

[2] = target: human PI3Kα (Homo sapiens (Human), UniProt P42336); assay: Human PI3Kα activity test (luciferin/luciferase ATP consumption, KinaseGlo); assay type: biochemical; details: PI3Kα (p110α/p85α), 50 μM PIP2, 2 μM ATP, 90 minutes; read-out: IC50 Human PI3Kα
Method: The test uses a luciferin/luciferase system to measure the concentration of ATP and its consumption during the enzymatic reaction.
After 90 minutes, the reaction is quenched by adding 20 μl/well of KinaseGlo reagent (Promega V6713). After 10 minutes in the dark, the luminescence is read using a PHERAStar microplate reader (reading at 0.8 sec/well).

[3] = Plasmodium falciparum, Erythrocyte

Sequence of human PI3Kα (P42336 whole entry): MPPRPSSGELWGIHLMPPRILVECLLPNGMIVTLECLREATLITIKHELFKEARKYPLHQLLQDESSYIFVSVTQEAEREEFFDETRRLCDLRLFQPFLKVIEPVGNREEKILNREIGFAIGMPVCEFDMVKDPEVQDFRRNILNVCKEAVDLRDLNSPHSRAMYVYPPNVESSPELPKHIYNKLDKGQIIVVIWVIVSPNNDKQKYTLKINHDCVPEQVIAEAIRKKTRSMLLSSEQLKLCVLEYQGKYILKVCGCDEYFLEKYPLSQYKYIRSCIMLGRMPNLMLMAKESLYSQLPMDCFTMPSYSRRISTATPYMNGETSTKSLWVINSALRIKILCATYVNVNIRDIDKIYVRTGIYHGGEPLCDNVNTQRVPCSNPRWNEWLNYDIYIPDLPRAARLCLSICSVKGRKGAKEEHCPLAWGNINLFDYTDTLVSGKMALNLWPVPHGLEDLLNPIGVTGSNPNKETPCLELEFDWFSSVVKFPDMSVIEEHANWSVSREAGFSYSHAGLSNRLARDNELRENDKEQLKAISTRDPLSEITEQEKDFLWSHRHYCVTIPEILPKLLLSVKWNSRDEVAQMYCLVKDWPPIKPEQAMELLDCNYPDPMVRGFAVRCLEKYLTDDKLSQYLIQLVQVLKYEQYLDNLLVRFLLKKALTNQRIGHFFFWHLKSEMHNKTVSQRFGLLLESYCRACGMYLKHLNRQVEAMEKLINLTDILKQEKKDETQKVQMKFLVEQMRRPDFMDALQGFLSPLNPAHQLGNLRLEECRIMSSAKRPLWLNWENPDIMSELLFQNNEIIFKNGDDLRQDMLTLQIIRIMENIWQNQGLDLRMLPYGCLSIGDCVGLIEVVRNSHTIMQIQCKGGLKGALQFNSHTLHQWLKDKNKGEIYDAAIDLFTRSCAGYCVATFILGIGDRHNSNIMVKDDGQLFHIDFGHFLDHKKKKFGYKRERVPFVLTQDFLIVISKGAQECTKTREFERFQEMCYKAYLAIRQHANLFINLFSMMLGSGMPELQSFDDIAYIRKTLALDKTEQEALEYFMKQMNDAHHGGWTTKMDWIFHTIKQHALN
Sequence of human PI3Kα (P27986 whole entry partner): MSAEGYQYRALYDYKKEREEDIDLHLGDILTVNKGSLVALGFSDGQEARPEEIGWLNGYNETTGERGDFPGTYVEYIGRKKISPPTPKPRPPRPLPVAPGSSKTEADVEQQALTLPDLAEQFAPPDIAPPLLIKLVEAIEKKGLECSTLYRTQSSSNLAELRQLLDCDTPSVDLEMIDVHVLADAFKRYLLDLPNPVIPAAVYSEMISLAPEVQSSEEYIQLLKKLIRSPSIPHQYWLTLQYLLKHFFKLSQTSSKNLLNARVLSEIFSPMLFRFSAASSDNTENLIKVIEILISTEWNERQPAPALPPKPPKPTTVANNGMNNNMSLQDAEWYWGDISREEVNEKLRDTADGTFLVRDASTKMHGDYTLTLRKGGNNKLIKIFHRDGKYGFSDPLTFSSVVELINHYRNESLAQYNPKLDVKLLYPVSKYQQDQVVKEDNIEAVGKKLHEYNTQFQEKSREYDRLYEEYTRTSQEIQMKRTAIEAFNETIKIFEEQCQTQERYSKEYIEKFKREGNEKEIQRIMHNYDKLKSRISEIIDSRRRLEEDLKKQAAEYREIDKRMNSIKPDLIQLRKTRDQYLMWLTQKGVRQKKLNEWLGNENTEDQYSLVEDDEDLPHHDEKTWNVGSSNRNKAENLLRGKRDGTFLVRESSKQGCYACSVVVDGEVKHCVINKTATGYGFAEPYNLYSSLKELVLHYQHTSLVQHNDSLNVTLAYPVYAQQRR

IC50 [1, 3] [µM] | IC50 [2] [µM] | IC50 [1] [µM] | Structure (SMILES)
0.009 | 1.98 | – | O=c1cc(N2C[C@@H]3C[C@H]2CO3)nc2n1CC[C@@H](C(F)(F)F)N2CCC1(O)CCCC1 [Compound 100, (8S)-9-[2-(1-Hydroxycyclopentyl)ethyl]-2-(1S,4S)-2-oxa-5-azabicyclo[2.2.1]hept-5-yl-8-trifluoromethyl-6,7,8,9-tetrahydropyrimido[1,2-a]pyrimidin-4-one]
0.01 | 0.19 | – | O=c1cc(N2CC3CCC(C2)O3)nc2n1CC[C@@H](C(F)(F)F)N2CCc1ccc(O)cc1 [Compound 83, (8S)-9-[2-(4-Hydroxyphenyl)ethyl]-2-(8-oxa-3-azabicyclo[3.2.1]oct-3-yl)-8-trifluoromethyl-6,7,8,9-tetrahydropyrimido[1,2-a]pyrimidin-4-one]
0.01 | 2.21 | – | CCC(O)(CC)CN1c2nc(N3C[C@@H]4C[C@H]3CO4)cc(=O)n2CC[C@H]1C(F)(F)F [Compound 54, (8S)-9-(2-ethyl-2-hydroxybutyl)-2-(1S,4S)-2-oxa-5-azabicyclo[2.2.1]hept-5-yl-8-trifluoromethyl-6,7,8,9-tetrahydropyrimido[1,2-a]pyrimidin-4-one]
0.086 | > 10 | – | CS(=O)(=O)c1ccc(C(=O)CN2c3nc(N4C[C@@H]5C[C@H]4CO5)cc(=O)n3CC[C@H]2C(F)(F)F)cc1 [Compound 108, (8S)-9-[2-(4-Methanesulfonylphenyl)-2-oxoethyl]-2-(1S,4S)-2-oxa-5-azabicyclo[2.2.1]hept-5-yl-8-trifluoromethyl-6,7,8,9-tetrahydropyrimido[1,2-a]pyrimidin-4-one]
0.0034 | 2.8 | – | CC(=O)N1CCC(CCN2c3nc(N4C[C@@H]5C[C@H]4CO5)cc(=O)n3CC[C@H]2C(F)(F)F)CC1 [Compound 89, (S)-9-[2-(1-Acetylpiperid-4-yl)ethyl]-2-(1S,4S)-2-oxa-5-azabicyclo[2.2.1]hept-5-yl-8-trifluoromethyl-6,7,8,9-tetrahydropyrimido[1,2-a]pyrimidin-4-one]
– | > 10 | 4 | O=C(CN1c2nc(N3C[C@@H]4C[C@H]3CO4)cc(=O)n2CC[C@H]1C(F)(F)F)c1ccc(C(F)(F)F)nc1 [Compound 33, (8S)-2-(1S,4S)-2-Oxa-5-azabicyclo[2.2.1]hept-5-yl-9-[2-oxo-2-(6-trifluoromethylpyrid-3-yl)ethyl]-8-trifluoromethyl-6,7,8,9-tetrahydropyrimido[1,2-a]pyrimidin-4-one]
0.006 | 0.38 | – | CN(C)CCOc1ccc(CCN2c3nc(N4C[C@@H]5C[C@H]4CO5)cc(=O)n3CC[C@H]2C(F)(F)F)cc1 [Compound 117, (8S)-9-{2-[4-(2-Dimethylaminoethoxyl)phenyl]ethyl}-2-(1S,4S)-2-oxa-5-azabicyclo[2.2.1]hept-5-yl-8-trifluoromethyl-6,7,8,9-tetrahydropyrimido[1,2-a]pyrimidin-4-one]
0.073 | > 10 | – | Cn1cncc1C(=O)CN1c2nc(N3C[C@@H]4C[C@H]3CO4)cc(=O)n2CC[C@H]1C(F)(F)F [Compound 66, (8S)-9-[2-(3-Methyl-3H-imidazol-4-yl)-2-oxoethyl]-2-(1S,4S)-2-oxa-5-azabicyclo[2.2.1]hept-5-yl-8-trifluoromethyl-6,7,8,9-tetrahydropyrimido[1,2-a]pyrimidin-4-one]
0.004 | 0.78 | – | O=c1cc(N2C[C@@H]3C[C@H]2CO3)nc2n1CC[C@@H](C(F)(F)F)N2CC1CCOCC1 [Compound 93, (8S)-2-(1S,4S)-2-oxa-5-azabicyclo[2.2.1]hept-5-yl-9-(tetrahydropyran-4-ylmethyl)-8-trifluoromethyl-6,7,8,9-tetrahydropyrimido[1,2-a]pyrimidin-4-one]
< 0.0045 | 1.53 | – | Cc1n[nH]c(C)c1CCN1c2nc(N3C[C@@H]4C[C@H]3CO4)cc(=O)n2CC[C@H]1C(F)(F)F [Compound 27, (8S)-9-[2-(3,5-Dimethyl-1H-pyrazol-4-yl)ethyl]-2-(1S,4S)-2-oxa-5-azabicyclo[2.2.1]hept-5-yl-8-trifluoromethyl-6,7,8,9-tetrahydropyrimido[1,2-a]pyrimidin-4-one]
